Measured values published in PubChem BioAssay AID1963428 (Molecular Pharmacology Branch, DTP, NCI, 2024).

System: 171881-019-R-J1-PDC complex spheroid growth, % test/control
Assay: Anticancer human tumor 171881-019-R-J1-PDC patient-derived invasive breast carcinoma cell line growth inhibition [Asc]
Conditions: for IC50: curve of first compound; for viability, T/C: stronger effect = lower value
Procedure: Multicellular complex tumor spheroid response to apoptosis pathway targeting inhibitors Alrizomadlin, Pelcitoclax, and Dasminapant in combination with a variety of drugs and investigational agents in selected tumor cell lines
The MDM2 inhibitor alrizomadlin, the Bcl-2/Bcl-xL inhibitor pelcitoclax, and the IAPs inhibitor dasminapant were evaluated both individually and in combination with standard of care and investigational anticancer small molecules within a complex spheroid model of solid tumors. . Complex spheroids include a stromal component modeled by human endothelial cells (HUVEC) and fibroblasts modeled by human mesenchymal stem cells (MSCs). The concentration ranges selected for each drug and investigational agent were based upon clinically achievable concentrations if the clinical Cmax of the agent was known.
Compounds. The drugs and investigational agents: alrizomadlin (APG-115; NSC831270), pelcitoclax (APG-1252; NSC835773), dasminapant (APG-1387;NSC834197), TAK-243 (NSC785004), copanlisib (NSC809693), olaparib (NSC753686), talazoparib (NSC767125), cobimetinib (NSC 768068), eltanexor (KPT-8602, NSC 794443), abemaciclib (NSC 768073), sotorasib (NSC818433), adagrasib (NSC 831453), MRTX-1133 (NSC 836407), Iadademestat (ORY1001, NSC 806812), and RMC-4630 (NSC839698), were obtained from the NCI Developmental Therapeutics Program Chemical Repository. The FDA-approved anticancer drug set is available from the Developmental Therapeutics Program at https://dtp.cancer.gov/organization/dscb/obtaining/available plates.htm. […] The stock solutions were prepared in dimethyl sulfoxide (DMSO, Sigma-Aldrich, St. Louis, MO, cat. D2650) at 800-fold the tested concentration and stored at -70 degrees C prior to their use. All drugs and investigational agents were tested over a range starting from a high concentration at or near the clinical Cmax and decreasing in half-log increments. If the clinical Cmax for an agent had not been determined, the highest concentration tested was 10 microM.
The patient-derived cancer (PDC) cell lines include five colon adenocarcinomas: 186277-243-T-J2-PDC, 616215-338-R-J1-PDC, 439559-082-T-J2-PDC, 463943-066-T-J2-PDC, and 519858-162-T-J1-PDC; three pancreatic carcinomas: 323965-272-R-J2-PDC, 521955-158-R6-J3-PDC, and 521955-158-R2-J5-PDC; two uterine sarcomas: 327498-152-R-J2-PDC and 993429-296-R-J1-PDC; two rhabdomyosarcomas: 755483-174-R-J1-PDC and 772245-204-R-J1-PDC; two soft tissue sarcomas: 126254-015-R-J1-PDC and 494315-158-R-J1-PDC; two malignant fibrous histiocytomas: 317291-083-R-J1-PDC and 596521-263-R-J1-PDC; two breast carcinomas: 171881-019-R-J1-PDC and 885512-296-R-J2-PDC; and one ovarian carcinoma: 6556581-035-R-J-PDC were obtained from the NCI PDMR, (https://pdmr.cancer.gov). The established cell lines HSSY-2 synovial sarcoma (RRID:CVCL 8719), SYO-1 synovial sarcoma (RRID:CVCL_7146), MPNST malignant peripheral neural sheath tumor were obtained from the Sloan Kettering Institute. The following established cell lines were purchased from the American Type Culture Collection (ATCC, Manassas, VA), Sor the received from the NCI repository:, PANC-1 pancreatic carcinoma (CRL-1469, RRID:CVCL_0480), OVCAR-5 ovarian carcinoma (RRID:CVCL_1628), OVCAR-8 ovarian carcinoma (RRID:CVCL_1629), , MCF-7 breast carcinoma (CRL-12584, RRID:CVCL_0031), MDA-MB-231 breast carcinoma (CRL-12532, RRID:CVCL_0062), NCI-H1876 small cell lung carcinoma (CRL-5902, RRID:CVCL_1503), NCI-H510A small cell lung carcinoma (HTB-184, RRID:CVCL_1565), NCI-H1417 (CRL-5869, RRID:CVCL_1469), and NCI-H196 small cell lung carcinoma (CRL-5823, RRID:CVCL_1509). Dr. Peter Houghton (Greehey Children's Cancer Research Institute, University of Texas Health Science Center, San Antonio, TX) provided Rh-18 rhabdomyosarcoma (RRID:CVCL_1659). Pooled donor human umbilical vein endothelial cells (HUVEC, Lonza, cat. CC-2519) and human mesenchymal stem cells (hMSC, Lonza, cat. PT-2501) were purchased from Lonza (Walkersville, MD).
Cell Culture. […]

[1] = second compound 0.03 µM, first compound 0.0316 µM
[2] = second compound 0.03 µM, first compound 0.1 µM
[3] = second compound 0.03 µM, first compound 0.316 µM
[4] = second compound 0.03 µM, first compound 1 µM
[5] = second compound 0.0949 µM, first compound 0.0316 µM
[6] = second compound 0.0949 µM, first compound 0.1 µM
[7] = second compound 0.0949 µM, first compound 0.316 µM
[8] = second compound 0.0949 µM, first compound 1 µM
[9] = second compound 0.3 µM, first compound 0.0316 µM
[10] = second compound 0.3 µM, first compound 0.1 µM
[11] = second compound 0.3 µM, first compound 0.316 µM
[12] = second compound 0.3 µM, first compound 1 µM
[13] = second compound 0.949 µM, first compound 0.0316 µM
[14] = second compound 0.949 µM, first compound 0.1 µM
[15] = second compound 0.949 µM, first compound 0.316 µM
[16] = second compound 0.949 µM, first compound 1 µM
[17] = second compound 3 µM, first compound 0.0316 µM
[18] = second compound 3 µM, first compound 0.1 µM
[19] = second compound 3 µM, first compound 0.316 µM
[20] = second compound 3 µM, first compound 1 µM
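Throughout, for viability, T/C: spheroids exposed to compounds for 7 days.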

Row | IC50 (second compound 0.03 µM) | IC50 (second compound 0.0949 µM) | IC50 (second compound 0.3 µM) | IC50 (second compound 0.949 µM) | IC50 (second compound 3 µM) | SMILES | viability, T/C [1] | viability, T/C [2] | viability, T/C [3] | viability, T/C [4] | viability, T/C [5] | viability, T/C [6] | viability, T/C [7] | viability, T/C [8] | viability, T/C [9] | viability, T/C [10] | viability, T/C [11] | viability, T/C [12] | viability, T/C [13] | viability, T/C [14] | viability, T/C [15] | further results
1 | > 1 µM | > 1 µM | > 1 µM | > 1 µM | > 1 µM | CNC(C)C(=O)NC1CN(S(=O)(=O)c2cccc(S(=O)(=O)N3CCC4CCC(C(=O)NC(c5ccccc5)c5ccccc5)N4C(=O)C(NC(=O)C(C)NC)C3)c2)CCC2CCC(C(=O)NC(c3ccccc3)c3ccccc3)N2C1=O (stereo not given) + CCN1C(C(=O)NC23CCC(C(=O)O)(CC2)CC3)C(c2cccc(Cl)c2F)C2(C(=O)Nc3cc(Cl)ccc32)C12CCCCC2 | 99.1% | 93.3% | 93.7% | 93% | 94.5% | 91.7% | 109% | 90.2% | 103% | 109% | 93.5% | 100% | 113% | 88.5% | 109% | viability, T/C (second compound 0.03 µM, first compound 0.00316 µM): 91.6%; viability, T/C (second compound 0.03 µM, first compound 0.01 µM): 103%; viability, T/C (second compound 0.0949 µM, first compound 0.00316 µM): 118%; viability, T/C (second compound 0.0949 µM, first compound 0.01 µM): 96.8%; viability, T/C (second compound 0.3 µM, first compound 0.00316 µM): 113%; viability, T/C (second compound 0.3 µM, first compound 0.01 µM): 103%; viability, T/C (second compound 0.949 µM, first compound 0.00316 µM): 109%; viability, T/C (second compound 0.949 µM, first compound 0.01 µM): 107%; viability, T/C [16]: 102%; viability, T/C (second compound 3 µM, first compound 0.00316 µM): 102%; viability, T/C (second compound 3 µM, first compound 0.01 µM): 115%; viability, T/C [17]: 106%; viability, T/C [18]: 90.3%; viability, T/C [19]: 100%; viability, T/C [20]: 96%
2 | > 10 µM | > 10 µM | > 10 µM | > 10 µM | > 10 µM | O=C(c1cc(Cc2n[nH]c(=O)c3ccccc23)ccc1F)N1CCN(C(=O)C2CC2)CC1 + CCN1C(C(=O)NC23CCC(C(=O)O)(CC2)CC3)C(c2cccc(Cl)c2F)C2(C(=O)Nc3cc(Cl)ccc32)C12CCCCC2 | 123% | 101% | 102% | 105% | 113% | 92.5% | 115% | 97.5% | 102% | 116% | 117% | 95.1% | 110% | 103% | 105% | viability, T/C (second compound 0.03 µM, first compound 3.16 µM): 94.5%; viability, T/C (second compound 0.03 µM, first compound 10 µM): 103%; viability, T/C (second compound 0.0949 µM, first compound 3.16 µM): 110%; viability, T/C (second compound 0.0949 µM, first compound 10 µM): 113%; viability, T/C (second compound 0.3 µM, first compound 3.16 µM): 114%; viability, T/C (second compound 0.3 µM, first compound 10 µM): 107%; viability, T/C [16]: 102%; viability, T/C (second compound 0.949 µM, first compound 3.16 µM): 103%; viability, T/C (second compound 0.949 µM, first compound 10 µM): 108%; viability, T/C [17]: 108%; viability, T/C [18]: 121%; viability, T/C [19]: 101%; viability, T/C [20]: 94.9%; viability, T/C (second compound 3 µM, first compound 3.16 µM): 113%; viability, T/C (second compound 3 µM, first compound 10 µM): 106%
